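48-hour exposure; five concentrations; linearly interpolated endpoints. GI50 = concentration required for 50% inhibition of growth. Definition used: TGI = concentration required for complete inhibition of growth.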
Assays:
Test in all cases: DTP human tumour cell line panel, 48 h
TK-10 renal = test system: TK-10 renal
SK-MEL-5 melanoma = test system: SK-MEL-5 melanoma
ACHN renal = test system: ACHN renal
LOX IMVI melanoma = test system: LOX IMVI melanoma
OVCAR-5 ovarian = test system: OVCAR-5 ovarian
HOP-62 NSCLC = test system: HOP-62 NSCLC
NCI-H226 lung = test system: NCI-H226 lung
UO-31 renal = test system: UO-31 renal
UACC-257 melanoma = test system: UACC-257 melanoma
HS 578T breast = test system: HS 578T breast
NCI/ADR-RES ovarian = test system: NCI/ADR-RES ovarian
EKVX NSCLC = test system: EKVX NSCLC
U251 CNS = test system: U251 CNS
RXF 393 renal = test system: RXF 393 renal
MDA-MB-231 breast = test system: MDA-MB-231 breast
SW-620 colon = test system: SW-620 colon
SN12C renal = test system: SN12C renal
IGROV1 ovarian = test system: IGROV1 ovarian
T-47D breast = test system: T-47D breast
A549 NSCLC = test system: A549 NSCLC
SNB-75 CNS = test system: SNB-75 CNS
SK-MEL-28 melanoma = test system: SK-MEL-28 melanoma
CCRF-CEM leukemia = test system: CCRF-CEM leukemia
OVCAR-4 ovarian = test system: OVCAR-4 ovarian
CAKI-1 renal = test system: CAKI-1 renal
A498 renal = test system: A498 renal
OVCAR-8 ovarian = test system: OVCAR-8 ovarian
HT29 colon = test system: HT29 colon
SNB-19 CNS = test system: SNB-19 CNS
MALME-3M melanoma = test system: MALME-3M melanoma
SF-268 CNS = test system: SF-268 CNS
KM12 colon = test system: KM12 colon
SF-539 CNS = test system: SF-539 CNS
HL-60(TB) leukemia = test system: HL-60(TB) leukemia
K-562 leukemia = test system: K-562 leukemia
DU-145 prostate = test system: DU-145 prostate
BT-549 breast = test system: BT-549 breast
SR leukemia = test system: SR leukemia
COLO 205 colon = test system: COLO 205 colon
HCT-116 colon = test system: HCT-116 colon
M14 melanoma = test system: M14 melanoma
HOP-92 NSCLC = test system: HOP-92 NSCLC
SK-OV-3 ovarian = test system: SK-OV-3 ovarian
HCT-15 colon = test system: HCT-15 colon
NCI-H460 lung = test system: NCI-H460 lung
HCC-2998 colon = test system: HCC-2998 colon
NCI-H522 lung = test system: NCI-H522 lung
786-0 renal = test system: 786-0 renal
NCI-H23 lung = test system: NCI-H23 lung
MCF7 breast = test system: MCF7 breast
MOLT-4 leukemia = test system: MOLT-4 leukemia
SK-MEL-2 melanoma = test system: SK-MEL-2 melanoma
PC-3 prostate = test system: PC-3 prostate
OVCAR-3 ovarian = test system: OVCAR-3 ovarian
UACC-62 melanoma = test system: UACC-62 melanoma
MDA-MB-435 = test system: MDA-MB-435
RPMI-8226 leukemia = test system: RPMI-8226 leukemia
SF-295 CNS = test system: SF-295 CNS

SMILES: CCCN(CCC)c1ccc(/C=N/NC(=O)c2cccnc2)c(Cl)c1
- GI50 (TK-10 renal): 0.5 µM
- TGI (TK-10 renal): 3.15 µM
- GI50 (SK-MEL-5 melanoma): 6.09 µM
- TGI (SK-MEL-5 melanoma): 19 µM
- GI50 (ACHN renal): 23.3 µM
- TGI (ACHN renal): > 88.1 µM
- GI50 (LOX IMVI melanoma): 11.2 µM
- TGI (LOX IMVI melanoma): 24.9 µM
- GI50 (OVCAR-5 ovarian): 1.22 µM
- TGI (OVCAR-5 ovarian): 4.73 µM
- GI50 (HOP-62 NSCLC): 10.3 µM
- TGI (HOP-62 NSCLC): 28.6 µM
- GI50 (NCI-H226 lung): 0.241 µM
- TGI (NCI-H226 lung): 0.707 µM
- GI50 (UO-31 renal): 14.3 µM
- TGI (UO-31 renal): 38.2 µM
- GI50 (UACC-257 melanoma): 0.816 µM
- TGI (UACC-257 melanoma): 2.96 µM
- GI50 (HS 578T breast): 14.3 µM
- TGI (HS 578T breast): 47.3 µM
- GI50 (NCI/ADR-RES ovarian): 5.78 µM
- TGI (NCI/ADR-RES ovarian): 48.4 µM
- GI50 (EKVX NSCLC): 17 µM
- TGI (EKVX NSCLC): 71.4 µM
- GI50 (U251 CNS): 4.78 µM
- TGI (U251 CNS): 20.6 µM
- GI50 (RXF 393 renal): 11.5 µM
- TGI (RXF 393 renal): 25.3 µM
- GI50 (MDA-MB-231 breast): 12.4 µM
- TGI (MDA-MB-231 breast): 28.5 µM
- GI50 (SW-620 colon): 8.07 µM
- TGI (SW-620 colon): 28.6 µM
- GI50 (SN12C renal): 14.1 µM
- TGI (SN12C renal): 34.3 µM
- GI50 (IGROV1 ovarian): 1.21 µM
- TGI (IGROV1 ovarian): 15.6 µM
- GI50 (T-47D breast): 1.07 µM
- TGI (T-47D breast): 13.9 µM
- GI50 (A549 NSCLC): 6.84 µM
- TGI (A549 NSCLC): 36.1 µM
- GI50 (SNB-75 CNS): 11.4 µM
- TGI (SNB-75 CNS): 39.9 µM
- GI50 (SK-MEL-28 melanoma): 11.9 µM
- TGI (SK-MEL-28 melanoma): 31.9 µM
- GI50 (CCRF-CEM leukemia): 15 µM
- TGI (CCRF-CEM leukemia): > 100 µM
- GI50 (OVCAR-4 ovarian): 2.32 µM
- TGI (OVCAR-4 ovarian): 35.7 µM
- GI50 (CAKI-1 renal): 12.1 µM
- TGI (CAKI-1 renal): 58 µM
- GI50 (A498 renal): 0.161 µM
- TGI (A498 renal): 0.318 µM
- GI50 (OVCAR-8 ovarian): 18.1 µM
- TGI (OVCAR-8 ovarian): 53.7 µM
- GI50 (HT29 colon): 4.71 µM
- TGI (HT29 colon): 17.8 µM
- GI50 (SNB-19 CNS): 16.6 µM
- TGI (SNB-19 CNS): > 100 µM
- GI50 (MALME-3M melanoma): 15 µM
- TGI (MALME-3M melanoma): 36.1 µM
- GI50 (SF-268 CNS): 15.5 µM
- TGI (SF-268 CNS): 38.9 µM
- GI50 (KM12 colon): 7.19 µM
- TGI (KM12 colon): 25.7 µM
- GI50 (SF-539 CNS): 11.6 µM
- TGI (SF-539 CNS): 26.5 µM
- GI50 (HL-60(TB) leukemia): 4.91 µM
- TGI (HL-60(TB) leukemia): 32.4 µM
- GI50 (K-562 leukemia): 3.75 µM
- TGI (K-562 leukemia): > 100 µM
- GI50 (DU-145 prostate): 17.8 µM
- TGI (DU-145 prostate): 49 µM
- GI50 (BT-549 breast): 12.9 µM
- TGI (BT-549 breast): 33.4 µM
- GI50 (SR leukemia): 3.41 µM
- TGI (SR leukemia): 98.6 µM
- GI50 (COLO 205 colon): 6.29 µM
- TGI (COLO 205 colon): 22.3 µM
- GI50 (HCT-116 colon): 2.88 µM
- TGI (HCT-116 colon): 16 µM
- GI50 (M14 melanoma): 8.71 µM
- TGI (M14 melanoma): 23.2 µM
- GI50 (HOP-92 NSCLC): 8.95 µM
- TGI (HOP-92 NSCLC): 25.2 µM
- GI50 (SK-OV-3 ovarian): 13.9 µM
- TGI (SK-OV-3 ovarian): 45.5 µM
- GI50 (HCT-15 colon): 7.87 µM
- TGI (HCT-15 colon): 34.4 µM
- GI50 (NCI-H460 lung): 3.63 µM
- TGI (NCI-H460 lung): 17.2 µM
- GI50 (HCC-2998 colon): 7.74 µM
- TGI (HCC-2998 colon): 25.7 µM
- GI50 (NCI-H522 lung): 6.64 µM
- TGI (NCI-H522 lung): 23.3 µM
- GI50 (786-0 renal): 11.6 µM
- TGI (786-0 renal): 29.1 µM
- GI50 (NCI-H23 lung): 14.1 µM
- TGI (NCI-H23 lung): 45.4 µM
- GI50 (MCF7 breast): 2.59 µM
- TGI (MCF7 breast): 21.1 µM
- GI50 (MOLT-4 leukemia): 12.9 µM
- TGI (MOLT-4 leukemia): 46.2 µM
- GI50 (SK-MEL-2 melanoma): 14.2 µM
- TGI (SK-MEL-2 melanoma): 30.4 µM
- GI50 (PC-3 prostate): 14.1 µM
- TGI (PC-3 prostate): > 81.3 µM
- GI50 (OVCAR-3 ovarian): 2.93 µM
- TGI (OVCAR-3 ovarian): 9.29 µM
- GI50 (UACC-62 melanoma): 0.875 µM
- TGI (UACC-62 melanoma): 4.6 µM
- GI50 (MDA-MB-435): 2.68 µM
- TGI (MDA-MB-435): 12.4 µM
- GI50 (RPMI-8226 leukemia): 15.7 µM
- TGI (RPMI-8226 leukemia): 69.9 µM
- GI50 (SF-295 CNS): 3.39 µM
- TGI (SF-295 CNS): 16.7 µM

— PubChem BioAssay (NCI)
